One may read the melting point as the temperature, or range, at which the solid turns liquid.

Molecule `COC(=O)C#Cc1cccc(C(=O)OC)c1` returned a melting point of 96 to 97 °C. As for `O=Cc1cccc(/C=C/c2nc(C3CCC3)cs2)c1`, the figure is 78 to 80 °C; as for `CC1CC(=O)NN=C1c1ccc(N2CCN(CCCCN)CC2)c([N+](=O)[O-])c1` (stereo not given), 145 to 146 °C; as for `CC(C)(C)OC(=O)Nc1ccc(-c2ccc(-c3ccccc3)cc2)cc1NC(=O)CC(=O)c1cccc(C#N)c1`, 214 to 216 °C. As for `Cc1nc(N2CCc3ccccc3CC2)c(C#N)c(=O)n1OC(C)C`, the figure is 127 to 128 °C; as for `NC(CCNCCC(N)=NO)=NO`, 180 °C; as for `O=C(c1ccccc1)c1cnn2c(-c3cccc(C(F)(F)F)c3)ccnc12`, 148 to 150 °C. Regarding `C/C(=C(\C#N)C(N)=S)N1CCC(C)CC1`, the melting point lay in the range of 156 to 159 °C. For the molecule `Nc1nnc(-c2ccccc2OC(F)(F)C(F)F)c(N)n1`, the melting point is 158 to 160 °C. As to `N#Cc1cc(Cc2ccc(Cl)cc2)ccc1N`, the melting point lay in the range of 91.5 to 93 °C. `CCSc1nc(N2CCNCC2)nc2cccnc12` displayed a melting point of 98 to 101 °C. As for `NC(=O)N1c2ccccc2CC(O)c2ccccc21` (stereo not given), the figure is 70.4 to 101 °C.

As to `CC(=O)NC[C@H]1CN(c2ccc(N3CCC(n4nnc(N5CCN(C)CC5)n4)CC3)c(F)c2)C(=O)O1`, the melting point lay in the range of 174 to 176 °C. As for `O=C(NCCCOCCCNC(=O)c1ccc(OC(F)(F)F)cc1)c1ccc(OC(F)(F)F)cc1`, the figure is 118 to 120 °C; as for `CCOC(=O)C1=CC(=O)C2(C(=O)c3ccc(OC)cc3)OC2O1` (stereo not given), 96 °C. Molecule `COc1cnnc(Oc2ccnc(OC(C)C(F)(F)F)c2)c1` (stereo not given) returned a melting point of 100 to 102 °C. Molecule `OC1Cn2cccc2Sc2ccccc21` (stereo not given) had a melting point of 101 to 102 °C.

With `CCCOc1nc2sc(Cl)cc2c(=S)n1CCC`, the melting point lay in the range of 81 to 83 °C. Molecule `COc1ccc(C(=O)Nc2cnccc2Cl)cc1OC1CCCC1` showed a melting point of 130 to 132 °C. In the case of `Clc1c(Cl)c(Cl)c(CI)c(Cl)c1Cl` it was 138 to 140 °C; in that of `Cc1ccc(C#N)c(NC(C)C)c1`, 55 to 57 °C; in that of `CC(Sc1ccccc1)C1C=CCC1C(N)=O` (stereo not given), 109 °C. As for `CC(C)(O)CCCCC(C)(C)O`, the figure is 87 °C; as for `O=C(O)c1cn(C2CSC2)c2cc(F)c(F)cc2c1=O`, 251 to 256 °C. In the case of `CCOC(=O)C1=Cc2cccc(C(N)=O)c2OCC1`, the melting point lay in the range of 120 to 125 °C. As for `COC(=O)c1cc(Br)c2c(c1Cl)OC(c1ccccc1)(c1ccccc1)O2`, the figure is 137 to 138 °C; as for `COC(=O)c1cc(Br)c2cc(Cc3ccc(F)cc3)cnc2c1O`, 152 °C. With `c1ccc2c(c1)OC[C@H](CN1CCC(CNc3nc4cccnc4s3)CC1)O2`, the melting point was 160 °C. As for `COC(=O)CCC(C)C1CCC2C3CC=C4C(C)(C)C(O)CCC4(C)C3CCC12C` (stereo not given), the figure is 136 to 138 °C. In the case of `COC(=O)[C@H](CCCCNC(=O)OCc1ccccc1)n1c2ccccc2c2ccccc21` it was 97 to 99 °C.

Take `CCOC(=O)N1CCC2CN(c3c(F)cc4c(=O)c(C(=O)O)cn(C5CC5)c4c3F)CC21` (stereo not given): the melting point was in the range of 191 to 192 °C.

Take `CC1Sc2c(C(=O)O)c(=O)c3cc(F)c(N4CCC(N(C)C)C4)c(Cl)c3n21` (stereo not given): the melting point lay within 161 to 162 °C. In the case of `CCOC(=O)C1=C(N)NC2=C(C(=O)CCC2)C1c1cccc2ccccc12` (stereo not given) it was 279 °C. As for `CCc1cccc(C)c1NC(=O)N=C1NCCN1`, the figure is 185 to 187 °C; as for `COC(=O)c1ccc(OC)c2c1OCO2`, 122 to 124 °C; as for `COc1cc(C(=O)CS(C)(=O)=O)cc(OC)c1N(C)C`, 111 to 112 °C. In the case of `COc1ccc(C2CCCN(C(=O)C(F)(F)F)C2)cc1N` (stereo not given) it was 88 °C; in that of `Cc1ccc(NC(=O)c2ccc(C(=O)Nc3ccccc3N)nc2)cc1Nc1nccc(-c2cccnc2)n1`, 150 to 152 °C; in that of `CN1C(=O)Cn2cc(C(=O)NCc3ccc(Cl)cc3)c(=O)c3cc(I)cc1c32`, 278 to 283 °C. `CCOC(=O)C1=C(C)Nc2nc(N3CCOCC3)nc(N3CCOCC3)c2C1c1ccccc1[N+](=O)[O-]` (stereo not given) came in with a melting point of 201 °C. Regarding `Cc1cccc(-c2n[nH]cc2-c2ccc(F)c(-c3ccc(N4CCOCC4)cn3)c2)n1`, the melting point fell in the range of 88 to 90 °C. `CCCCCN1C(=O)C2(COc3cc4c(cc32)OCO4)c2cccnc21` (stereo not given) displayed a melting point of 126 to 127 °C. `CCCNC(=O)C1Cc2c([nH]c3ccccc23)C(c2ccc3c(c2)OCO3)N1C(C)=O` (stereo not given) registered a melting point of 163 to 165 °C. Regarding `Cc1ccc(S(=O)(=O)C2SC(=O)N(C(c3ccccc3)(c3ccccc3)c3ccccc3)C2=O)cc1` (stereo not given), the melting point lay within 105 to 110 °C. For `CCOC(=O)N1CCc2nc3ccccc3c(Cl)c2CC1`, the melting point worked out at 104 °C. As for `CC(C)c1cc(Cl)cc(C(C)C)c1NC(=O)NS(=O)(=O)c1cccc(C2(C)OCCO2)c1`, the figure is 155 to 157 °C; as for `O=C(c1cc(C(F)(F)F)cc(C(F)(F)F)c1)N1CCN(C(=O)CN2CCC(O)(c3ccccc3)CC2)C(c2ccc(Cl)c(Cl)c2)C1` (racemic), 104 to 106 °C. For the molecule `O=C(O)c1ccccc1-c1ccc([N+](=O)[O-])cn1`, the melting point fell in the range of 262 to 264 °C. In the case of `NC(=O)C1CCn2c(cc3ccccc32)C1` (stereo not given) it was 165 to 168 °C; in that of `CC(C)C1NS(=O)(=O)N(COC(=O)c2c(Cl)cccc2Cl)C1=O` (stereo not given), 151 to 152 °C. As for `CCOC(=O)Nc1c(C(=O)OC)sc2cc(OC)ccc12`, the figure is 137 °C; as for `N#CN=C(Nc1ccc(C#N)c(Br)c1O)Nc1cccc2c1OCO2`, 164 to 165 °C. Turning to `NC(=O)COc1ccc(C(=O)CN2CCN(c3ccncc3)CC2)cc1`, the melting point was in the range of 247 to 248 °C. Molecule `CCc1c(OC)nc2nc(-c3nnc(C(F)(F)F)o3)cn2c1C` displayed a melting point of 210 to 211 °C. As for `CNCC1CCN(c2c(F)cc3c(=O)c(C(=O)O)cn(C4CC4)c3c2OC)C1` (stereo not given), the figure is 226 to 230 °C; as for `O=C(O)c1ccc2c(c1)S(=O)(=O)c1ccccc1C(=O)N2`, 337 to 340 °C; as for `CC(=O)OCC(C)C1=CCC2C3CC=C4CC(OC(C)=O)CCC4(C)C3CCC12C` (stereo not given), 116 to 117 °C.

Take `CS(=O)(=O)NCCSc1cccc2nccn12`: the melting point fell in the range of 130 to 131 °C.

For `Cc1ccc(-c2[nH]nc3c2C(=O)c2c(NC(N)=O)cccc2-3)s1`, the melting point is over 280 °C. As for `CN1CCN(Cc2ccc(NC(=O)N3CCCc4cc(Oc5ccnc(N)n5)ccc43)cc2C(F)(F)F)CC1`, the figure is 120 to 123 °C; as for `CCN1CCCC1CNC(=O)c1cc(-n2cnnn2)ccc1OC` (stereo not given), 171 to 174 °C. In the case of `CC(C)Nc1nc2c(Cl)cc(Cl)cc2n1[C@H]1O[C@@H](CO)[C@H](O)[C@@H]1O` it was 212 to 214 °C; in that of `CC(=O)N(C=CC(=Nc1ccccc1)Oc1ccccc1)c1ccccc1`, 120 °C; in that of `COCC(=O)OC1(C(=O)COC(C)=O)CCC2C3CC(C)C4=CC(=O)C=CC4(C)C3C(O)CC21C` (stereo not given), 150 to 152 °C.

Molecule `CN(C)CCOc1ccc(Nc2nccc(-c3ccncc3)n2)cc1` showed a melting point of 120 to 122 °C. In the case of `Oc1ccccc1C1OCCO1` it was 67 to 70 °C; in that of `CNC(=O)[C@@H](NC(=O)[C@@H](CC(=O)O)n1ccc(-c2ccc(-c3ccc(C#N)cc3)cc2)c1)C(C)(C)C`, 142 to 144 °C; in that of `CCOC(=O)C1CC2CC(=O)CCC2CN1C(=O)OC` (stereo not given), 79 to 80 °C.

`N#Cc1nn(-c2c(Cl)cc(C(F)(F)F)cc2Cl)cc1-c1ccoc1`: the melting point was found to be 139 °C. As for `NCC1Cc2cccc(-c3cccc(Cl)c3)c2O1` (stereo not given), the figure is 150 to 154 °C; as for `CC(=O)Nc1ccc(F)c(N2CCN(C(C)=O)CC2)n1`, 178 to 180 °C; as for `CCOC(=O)c1ccc(NC(=O)c2cc(C)no2)cc1`, 160 to 163 °C.

In turn, `CON=C(c1nnco1)c1ccccc1COc1cc(C)ccc1C` showed a melting point of 134 to 135 °C. For the molecule `O=C(Cc1ccc(OCc2ccccc2)cc1)P(=O)(O)O`, the melting point was 112 to 113 °C. In the case of `CCCCN(CCCC)S(=O)(=O)c1ccc(C(CC2CCCC2)C(=O)Nc2nc3ccc(OC)nc3s2)cc1` (stereo not given) it was 65 to 67 °C. In the case of `NC1=NC(c2ccccc2)=NCC1(N)N=O` (stereo not given) it was 243 to 244 °C.

`C=C(Sc1ccc(Br)cc1)S(=O)(=O)c1cccc([N+](=O)[O-])c1`: the melting point lay within 109 to 111 °C. `CNc1nc(S(=O)(=O)Nc2c(F)cccc2F)nn1-c1ccccc1` returned a melting point of 180 to 181 °C. In the case of `O=C(NC(Cc1ccccc1)C(=O)O)c1cc2cc(Cl)ccc2[nH]1` (stereo not given) it was 248 to 255 °C; in that of `O=C(Nc1ccccc1)Oc1ccc(N=C=S)cc1`, 139 to 142 °C. `NC(=NO)c1ccccc1C(F)(F)F` yielded a melting point of 74 to 76 °C.

Take `CC(C)(C)C(O)Cn1ncn(-c2ccc(N3CCN(c4ccc(O[Si](C)(C)C(C)(C)C)cc4)CC3)cc2)c1=O` (stereo not given): the melting point is 196 °C. On to `CCCCCCC1(CCCCCC)c2cc(Br)ccc2-c2ccc(Br)cc21`, for which the melting point is 64 to 66 °C. As for `c1ccc(OCC2CCN(CCCOc3cccc4[nH]c5ccccc5c34)CC2)cc1`, the figure is 126 to 128 °C. With `CC(C)(C)OC(=O)N[C@H]1CC[C@H](CCN2CCN(c3cc(C#N)cc(C(F)(F)F)c3)CC2)CC1`, the melting point was 139 to 140 °C. In the case of `Brc1ccn2nc(N3CCOCC3)nc2c1` it was 178 to 179 °C; in that of `COc1ccc(C(=O)Nc2ccccc2)cc1NC(=O)CC(=O)OCc1ccccc1`, 168 to 171 °C. As for `O=C(O)C1=Cc2cc(-c3ccc(OC(F)(F)F)cc3)ccc2OCC1`, the figure is 252 to 254 °C; as for `Cc1nc2ccc3c(c2o1)C(=CC#N)CC3`, 180 to 182 °C. Consider `CC(C)(C)OC(=O)NCCCCCNC1(c2ccccc2Cl)C(=O)Nc2ccc(Cl)cc21` (stereo not given), for which the melting point stood at 185 °C.

The values are drawn from a melting point compilation (Tetko et al.; mined from patent text by program, amines drawn as free bases though some values may be those of a salt).
